Data as given in patent US11564947B2, “Methods and compositions for cellular immunotherapy” (eFFECTOR Therapeutics, Inc., priority 2017, dated 2023).

Tests used:
CD8+ T cells [1] = test: T cell memory formation, OVA MHC class I epitope peptide (SIINFEKL) stimulation of OT-I splenocytes; type: cell-based, mouse; details: 5 μg/ml SIINFEKL peptide plus Compound 107 0.01-10 μM, 48 hrs, peptide alone 32%
Procedure: (§1) Spleens were isolated from OT-I and processed into a single cell suspension. Red blood cells (RBCs) were lysed using RBC lysis solution. Splenocytes (2×10^6 cells/ml) were cultured in complete media (10% FBS in DMEM) and stimulated with 5 μg/ml OVA MHC class I epitope peptide (SIINFEKL, SEQ ID NO:1) in the absence or presence of 0.01 μM, 0.1 μM, 1.0 μM, 3.0 μM, or 10 μM of MNK-specific inhibitor, Compound 107, for 48 hrs. For the mixed lymphocyte reaction (MLR) assay, peritoneal macrophages were first isolated from BALB/c mice by peritoneal wash with chilled DMEM media. This lavage was plated in a 24 well plate for 2 h at 37° C. After 2 h, non-adherent cells were washed to remove non-macrophage populations. The adherent cells (primarily peritoneal macrophages) were cultured in complete media in the absence or presence of the indicated Compound 107 concentrations for 24 h. After 24 h, panned splenocytes (enriched in T cells) from C57BL/6 mice were added to the macrophage culture in the absence or presence of Compound 107 for an additional 4 days.
(§2) The cells were harvested from the MLR, washed and stained with Horizon™ FVS, anti-CD4, anti-CD8, anti-CD44 and anti-CD62L antibodies. The cells were analyzed by flow cytometry (Attune NXT, ThermoFisher) and FlowJo analysis software (FlowJo LLC, Ashland Oreg.). CD8+ and CD4+ cells populations were analyzed for expression of CD44 and CD62L. […]

[2] = tested on: OT-I memory T cells (CD45.2+CD8+CD44+) in spleen; test: Long-term memory/recall response after adoptive transfer of OT-I T cells; type: in vivo, B6.SJL mice
Procedure: Spleens were isolated from OT-I mice and CD3^+ T cells were isolated using the MojoSort Mouse CD3 T Cell Isolation Kit (Biolegend, San Diego Calif.). OT-I T cells (2×10^6 cells) were adoptively transferred into B6.SJL mice through intravenous tail vein injection. Mice were dosed orally with vehicle or 1 mg/kg Compound 107 24 hrs later and vaccinated subcutaneously with SIINFEKL peptide (SEQ ID NO:1) (50 μg/mouse). Mice were dosed with vehicle or 1 mg/kg Compound 107 for an additional six days. On day 21 post-immunization, selected groups were boosted with an additional injection of SIINFEKL peptide (SEQ ID NO:1) (50 μg/mouse). On day 24, spleens were harvested from animals and processed into a single cell suspension for flow cytometry analysis. Cells were stained with BD Horizon Fixable Viability Stain and antibodies against CD45.2, CD8, and CD44. Cells were analyzed using an Attune NXT flow cytometer and data was processed using FlowJo 10.1 software.

CD8+ T cells [3] = test: T cell memory formation, mixed lymphocyte reaction (MLR) assay, CD8+ cells; type: cell-based, mouse
Procedure: as §1, §2

CD4+ T cells = test: T cell memory formation, mixed lymphocyte reaction (MLR) assay, CD4+ cells; type: cell-based, mouse; details: MLR in presence of Compound 107
Procedure: as §1, §2

E.G7-OVA tumors = test: In vivo tumor growth inhibition; set-up: species or system athymic nude mice
Procedure: E.G7-OVA tumor cells (2×10^6) were implanted subcutaneously into athymic nude mice. On day 7 post-implant, tumors were measured (˜192 mm^3) and tumor-bearing animals were randomized into 6 groups. T cells purified from OT-I mouse spleens were cultured for 48 h in vitro with DMSO/PBS control alone, 50 μg/ml SIINFEKL peptide (SEQ ID NO:1) alone, 1 μM Compound 107, or the combination of 50 μg/ml SIINFEKL (SEQ ID NO:1) and 1 μM Compound 107. The in vitro treated OT-I T cells were adoptively transferred into animals from the appropriate groups (2×10^6 cells/mouse) by tail vein injection. Animals were dosed in vivo with vehicle or 1 mg/kg Compound 107 and tumor size and body weight was monitored during the course of the study.

Cc1cc(Nc2cc(N)ncn2)c(=O)n2c1C(=O)NC21CCCCC1.Cl [Compound 107]
distribution of CD8+ T cells in the TCM pool (CD44high CD62Lhigh) (CD8+ T cells [1]): 36-41%
percentage of OT-I memory T cells in spleen (% of total lymphocytes) ([2]; immunized and boosted with SIINFEKL, 1 mg/kg oral during immunization, day 24, vs vehicle-treated immunized/boosted group): significantly increased
population of OT-I memory T cells in spleen (% of total lymphocytes) ([2]; un-immunized animals, 1 mg/kg oral, day 24): unaffected
pool of TCM CD8+ T cells (CD8+ T cells [3]; MLR in presence of Compound 107, MLR alone 15%): 20-29%
TEM pool of CD8+ T cells (CD8+ T cells [3]; MLR, 0.01-3 μM of Compound 107, MLR alone 16%): 8-11%
pool of TCM CD4+ T cells (CD4+ T cells; MLR alone 21%): 28-39%
TEM CD4+ T cell pool (CD4+ T cells; MLR alone 25%): 16-23%
tumor growth inhibition (TGI) (E.G7-OVA tumors; OT-I cells pre-treated in vitro with SIINFEKL and Compound 107, animals also dosed in vivo with 1 mg/kg Compound 107, compared with the vehicle-dosed group (55%)): did not show any further increase in TGI
tumor growth inhibition (TGI) (E.G7-OVA tumors; adoptive transfer of SIINFEKL-pre-treated OT-I cells, animals dosed 1 mg/kg Compound 107 daily, 8 days post-transfer): 45%
tumor growth inhibition (TGI) (E.G7-OVA tumors; no adoptive transfer of OT-I T cells, 1 mg/kg Compound 107 daily vs vehicle, 8 days post-transfer): 16%
tumor growth inhibition (TGI) (E.G7-OVA tumors; vehicle-dosed animals, OT-I cells pre-treated in vitro with SIINFEKL and 1 μM Compound 107, 8 days post-transfer): 55%
